Measured values as given in ChEMBL document CHEMBL1201862, “PubChem BioAssay data set” (2004).
Active and inactive are the calls of the source.

Key:
HEK293 [1] = experiment: Fluorescence-based counterscreen for potentiators or agonists of NPY-Y2: cell-based high-throughput dose response assay to identify inhibitors of cyclic nucleotide gated ion channel (CNGC) activity. In this assay, the parental HEK293 cell line transfected with a cyclic-nucleotide gated ion channel (CNGC)-based cAMP sensor is used to measure inhibition of isoproterenol-induced CNGC activity by test compound.; type: functional; details: Homo sapiens
[2] = molecular target: T1, Neuropeptide Y receptor type 2 (Homo sapiens, UniProt P49146); experiment: Fluorescence-based cell-based high-throughput dose response assay for agonists of NPY-Y2. [Related pubchem assays: 1703 (Screening assay (CNGC inhibitors).), 1359 (Screening assay (NPY-Y2 potentiators or agonists).), 1304 (Screening assay (NPY-Y1 potentiators or agonists).), 1710 (Screening assay (NPY-Y2 agonists).), 1791 (Summary AID.)]; type: functional
T1 sequence (P49146 whole entry): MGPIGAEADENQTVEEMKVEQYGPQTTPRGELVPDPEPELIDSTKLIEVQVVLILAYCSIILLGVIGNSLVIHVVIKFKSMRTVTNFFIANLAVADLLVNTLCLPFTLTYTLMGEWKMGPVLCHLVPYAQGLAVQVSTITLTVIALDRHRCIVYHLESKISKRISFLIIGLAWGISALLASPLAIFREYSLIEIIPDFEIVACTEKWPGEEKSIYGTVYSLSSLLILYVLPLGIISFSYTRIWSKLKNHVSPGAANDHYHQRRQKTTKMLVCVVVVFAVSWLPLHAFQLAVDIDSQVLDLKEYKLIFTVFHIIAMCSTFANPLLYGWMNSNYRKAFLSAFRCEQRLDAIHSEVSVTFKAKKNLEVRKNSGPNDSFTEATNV

[3] = molecular target: T2, Neuropeptide Y receptor type 1 (Homo sapiens, UniProt P25929); experiment: Fluorescence-based counterscreen for agonists of NPY-Y2: cell-based high-throughput dose response assay for agonists of NPY-Y1.; type: functional
T2 sequence (P25929 whole entry): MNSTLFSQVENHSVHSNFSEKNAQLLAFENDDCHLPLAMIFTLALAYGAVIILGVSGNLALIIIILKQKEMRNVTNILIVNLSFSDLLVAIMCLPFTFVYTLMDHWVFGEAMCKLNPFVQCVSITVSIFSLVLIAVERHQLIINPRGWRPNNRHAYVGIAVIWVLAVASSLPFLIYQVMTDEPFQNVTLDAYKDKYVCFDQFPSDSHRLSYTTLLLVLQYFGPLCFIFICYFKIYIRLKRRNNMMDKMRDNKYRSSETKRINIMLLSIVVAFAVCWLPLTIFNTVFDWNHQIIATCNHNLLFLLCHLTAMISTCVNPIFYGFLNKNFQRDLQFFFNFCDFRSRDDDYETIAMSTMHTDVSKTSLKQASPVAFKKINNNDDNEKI

[4] = molecular target: T3, RNA-binding protein pos-1 (Caenorhabditis elegans, UniProt G5EF15); experiment: inhibitors of POS-1/mex-3 RNA binding, dose response, biochemical, fluorescence polarization (AID 1964);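 note: purified POS-1 fused to maltose binding protein made in E. coli; potency of compounds blocking POS-1 binding to fluorescent RNA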
T3 sequence (G5EF15 whole entry): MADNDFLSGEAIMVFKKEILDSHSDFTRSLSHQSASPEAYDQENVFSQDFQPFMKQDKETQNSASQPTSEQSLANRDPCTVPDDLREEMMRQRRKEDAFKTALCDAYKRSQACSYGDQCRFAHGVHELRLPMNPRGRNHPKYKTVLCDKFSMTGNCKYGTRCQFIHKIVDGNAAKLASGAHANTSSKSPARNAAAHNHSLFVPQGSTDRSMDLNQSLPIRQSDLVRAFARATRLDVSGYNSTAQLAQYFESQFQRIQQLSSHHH

[5] = Counterscreen for IDE inhibitors: Luminescence-based cell-based high throughput dose response assay to identify compounds that are cytotoxic to HEK cells. [Related pubchem assays: 434962 (Primary screen (IDE inhibitors in singlicate)), 449730 (Counterscreen (Cytotoxicity in triplicate)), 435028 (Confirmation (IDE inhibitors in triplicate)) …; type: functional; details: HEK293
Insulin-degrading enzyme = molecular target: T4, Insulin-degrading enzyme (Homo sapiens, UniProt P14735); experiment: Dose Response: Fluorescence polarization-based cell-based high throughput dose response assay for inhibitors of insulin-degrading enzyme (IDE). [Related pubchem assays: 434962 (Primary screen (IDE inhibitors in singlicate)), 449730 (Counterscreen (Cytotoxicity in triplicate)), 435028 (Confirmation (IDE inhibitors in triplicate)), 434984 (Summary …; type: functional
T4 sequence (P14735 whole entry): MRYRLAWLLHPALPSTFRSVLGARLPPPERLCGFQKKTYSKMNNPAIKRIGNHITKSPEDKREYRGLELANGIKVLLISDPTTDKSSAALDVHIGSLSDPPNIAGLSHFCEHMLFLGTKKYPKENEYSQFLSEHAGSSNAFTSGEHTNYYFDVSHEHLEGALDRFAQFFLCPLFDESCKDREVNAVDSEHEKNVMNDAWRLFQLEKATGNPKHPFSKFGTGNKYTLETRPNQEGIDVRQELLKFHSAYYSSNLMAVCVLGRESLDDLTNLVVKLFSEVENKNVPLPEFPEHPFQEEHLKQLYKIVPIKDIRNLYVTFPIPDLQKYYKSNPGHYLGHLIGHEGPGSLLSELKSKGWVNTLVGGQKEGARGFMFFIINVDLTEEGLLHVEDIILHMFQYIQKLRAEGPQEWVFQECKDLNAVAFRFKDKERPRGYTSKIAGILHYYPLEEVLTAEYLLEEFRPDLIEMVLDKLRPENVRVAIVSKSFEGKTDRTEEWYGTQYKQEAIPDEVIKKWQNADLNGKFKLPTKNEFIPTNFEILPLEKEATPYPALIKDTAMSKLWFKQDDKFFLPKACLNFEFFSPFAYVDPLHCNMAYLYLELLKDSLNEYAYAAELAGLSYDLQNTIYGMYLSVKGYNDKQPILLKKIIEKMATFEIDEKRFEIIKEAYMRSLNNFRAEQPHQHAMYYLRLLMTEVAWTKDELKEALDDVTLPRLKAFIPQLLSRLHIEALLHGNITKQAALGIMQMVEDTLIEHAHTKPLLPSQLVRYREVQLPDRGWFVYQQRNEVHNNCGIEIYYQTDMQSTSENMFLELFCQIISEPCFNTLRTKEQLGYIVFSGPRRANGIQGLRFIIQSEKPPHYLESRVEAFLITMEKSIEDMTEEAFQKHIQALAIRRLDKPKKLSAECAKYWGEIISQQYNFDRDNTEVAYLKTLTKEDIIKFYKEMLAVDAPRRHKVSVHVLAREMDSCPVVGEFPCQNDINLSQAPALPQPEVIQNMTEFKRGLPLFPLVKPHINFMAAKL

[6] = enhancers of respiration in Yfh1-depleted yeast, dose response, Friedreich's ataxia, plus single-dose screen (AID 1465); type: functional;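 note: yeast depleted of Yfh1p frataxin homolog grown on glycerol needing respiration; WST-1 tetrazolium dye reduction as measure of cellular dehydrogenase metabolic activity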
HEK293 [7] = experiment: cells; type: functional, cell-based; details: Homo sapiens
[8] = molecular target: T5, Nuclear receptor subfamily 0 group B member 1 (Homo sapiens, UniProt P51843); experiment: Luminescence-based cell-based high throughput dose response assay for inhibitors of the orphan nuclear receptor subfamily 0, group B, member 1 (DAX1; NR0B1). [Related pubchem assays (depositor defined):AID504766, AID504790]; type: functional
T5 sequence (P51843 whole entry): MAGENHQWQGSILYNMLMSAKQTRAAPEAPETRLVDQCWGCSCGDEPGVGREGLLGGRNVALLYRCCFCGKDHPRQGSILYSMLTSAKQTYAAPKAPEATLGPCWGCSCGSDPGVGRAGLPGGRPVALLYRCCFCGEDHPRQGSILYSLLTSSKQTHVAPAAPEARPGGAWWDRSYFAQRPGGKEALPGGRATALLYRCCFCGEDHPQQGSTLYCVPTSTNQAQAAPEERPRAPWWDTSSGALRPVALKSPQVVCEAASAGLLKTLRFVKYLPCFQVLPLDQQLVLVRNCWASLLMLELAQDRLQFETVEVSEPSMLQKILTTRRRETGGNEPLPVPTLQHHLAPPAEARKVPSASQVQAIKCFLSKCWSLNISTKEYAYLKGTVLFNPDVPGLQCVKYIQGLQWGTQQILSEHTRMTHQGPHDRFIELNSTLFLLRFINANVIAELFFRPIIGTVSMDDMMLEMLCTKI

[9] = molecular target: Serine/threonine-protein phosphatase PP1-alpha catalytic subunit (Homo sapiens, UniProt P62136); experiment: PP1 phosphatase inhibitors, dose response, biochemical, fluorescence (AID 2403);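 note: phosphatase turnover of OMFP into fluorescent 3-O-methylfluorescein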
[10] = inhibitors of intracellular T. cruzi replication, confirmation, NIH3T3 host cells, beta-gal luminescence (AID 2044); type: functional, cell-based;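 note: intracellular parasites grown in NIH/3T3 mouse fibroblasts as host cells; luminescent beta-galactosidase reporter signal from transgenic T. cruzi replicating inside host cells; inhibitors lower the luminescence signal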
[11] = molecular target: Serine/threonine-protein phosphatase (Homo sapiens, UniProt Q9BPW0); experiment: Counterscreen for inhibitors of PP1: fluorescence-based biochemical high throughput dose response assay to identify inhibitors of Protein Phosphatase 5 (PP5). [Related pubchem assays: 2034 (Summary (PP5 inhibitors)), 1987 (PP5 inhibitors in singlate), 2235 (PP1 inhibitors in singlate)]
[12] = cytotoxicity toward NIH3T3 fibroblasts, dose response, counter-screen, cell-based, ATP luminescence, mouse fibroblasts (AID 2010); type: functional;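 note: cells exposed to compound for about 90 hours before reading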

Chain of Serine/threonine-protein phosphatase (Q9BPW0 whole entry): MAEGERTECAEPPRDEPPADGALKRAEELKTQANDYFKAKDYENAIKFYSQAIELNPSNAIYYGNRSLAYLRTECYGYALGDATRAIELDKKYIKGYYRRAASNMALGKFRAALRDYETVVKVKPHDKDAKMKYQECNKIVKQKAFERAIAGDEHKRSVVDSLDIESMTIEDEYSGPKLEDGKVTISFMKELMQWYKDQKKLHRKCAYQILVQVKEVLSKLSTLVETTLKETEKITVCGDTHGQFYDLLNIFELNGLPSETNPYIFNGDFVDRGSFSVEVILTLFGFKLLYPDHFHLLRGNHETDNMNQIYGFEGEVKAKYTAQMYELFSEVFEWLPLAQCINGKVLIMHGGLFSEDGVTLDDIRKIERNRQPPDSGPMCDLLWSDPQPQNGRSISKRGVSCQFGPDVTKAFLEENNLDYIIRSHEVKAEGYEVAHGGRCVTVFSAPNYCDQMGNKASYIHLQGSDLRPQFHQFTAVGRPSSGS
Chain of Serine/threonine-protein phosphatase PP1-alpha catalytic subunit (P62136 whole entry): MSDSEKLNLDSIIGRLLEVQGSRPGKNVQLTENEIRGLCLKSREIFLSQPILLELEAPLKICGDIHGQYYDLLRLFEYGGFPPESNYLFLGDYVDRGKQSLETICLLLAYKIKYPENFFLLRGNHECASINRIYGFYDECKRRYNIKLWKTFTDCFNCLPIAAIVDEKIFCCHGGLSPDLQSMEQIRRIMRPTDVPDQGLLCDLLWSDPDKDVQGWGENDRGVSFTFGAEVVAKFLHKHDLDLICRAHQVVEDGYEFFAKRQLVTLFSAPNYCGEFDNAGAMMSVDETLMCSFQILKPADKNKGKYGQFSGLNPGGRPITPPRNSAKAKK

Q: Which EC50 (HEK293 [1]) does the source give for `COC(=O)/C(=C/c1cn(C(C)=O)c2ccccc12)[N+](=O)[O-]` here?
A: 12.3 µM (not active)

Q: And the EC50 [2]?
A: > 35.4 µM (not active)

Q: What about the EC50 [3] of the same compound?
A: > 35.4 µM (not active)

Q: What does the source list for `CCN(CC)c1ccc(/C=C2\C(=O)NC(=S)N(C)C2=O)o1`?
A: EC50 [4]: > 300 µM (inconclusive); IC50 [5]: > 55.7 µM (not active); IC50 (Insulin-degrading enzyme): 14 µM (not active); EC50 [6]: > 100 µM (active); IC50 (HEK293 [7]): > 67.6 µM (inactive); IC50 [8]: > 67.6 µM (inactive)

Q: For `COc1cnc(-c2ccccn2)nc1Sc1ccccc1`, which IC50 [9] is on record?
A: 7.03 µM (active)

Q: What about the EC50 [10] of the same compound?
A: 2.47 µM (active)

Q: And the IC50 [11]?
A: > 67 µM (not active)

Q: What about the EC50 [12] of the same compound?
A: > 60 µM (not active)
